# From US20200029601A1, “PHENYLACRYLIC ACID SOLUTION FOR BROAD SPECTRUM ANTIMICROBIAL APPLICATIONS FOR FOODSTUFFS” (KLF LABS LLC, priority 2018, published 2020)
# Like-named read-outs stand apart in the source and are kept apart here.
# Tests used:
# Candida parapsilosis = assay: microbe, parasite or virus in culture; details: Lodderomyces parapsilosis, 48 h
# Description: (§1) The media was then sterilized by steam autoclaving the solution for 15 minutes at 121° C. and the media was placed into 3 96 cell plates and pH using either 0.1N HCl or 0.1N NaOH to pH values of 3.1, 5.6, 6.0, 6.5, 7.0, and 7.5.
# (§2) Three exemplary embodiment solutions were added and serial diluted into a series of treatment wells and 0.5 McFarland Standard's worth of yeast cells were added to each well. The plates were incubated at 32° C. for 48 hours and then the OD was read at 600 nm. The percent inhibition was graphed as a percentage of the following formula indicated in Equation 1.
# Saccharomyces cerevisiae [1] = assay: microbe, parasite or virus in culture; details: 48 h
# Description: as §1, §2
# Zygosaccharomyces bailii [2] = assay: microbe, parasite or virus in culture; details: 48 h
# Description: as §1, §2
# Zygosaccharomyces rouxii = assay: microbe, parasite or virus in culture; details: 48 h
# Description: as §1, §2
# Escherichia coli = details: 500 ppm; pH 4.5; 24 hours growth, then plated
# Description: (§3) In conducting tests with the model organisms, agar medium for 1 L plates were first prepared having the composition indicated in Table 16.
# (§4) In connection with this particular experiment, the pH of the samples was adjusted to a pH value of 4.5 by adding a small amount of 0.1 M HCl. The samples were then sterilized with steam at 121° C. for about 15 minutes. The formulations were allowed to cool to 70° F., after which a sample of 10^6 cells of an aforementioned microorganism, as measured using the optical density of the cells, was applied to 1 mL of the individual solutions. Afterwards, samples were allowed to grow for 24 hours. The solutions were diluted one hundred-fold and 10 microliters were applied to a LB media plate and outgrown for 24 additional hours.
# [3] = test system: Lactobacillus acidophilus; details: 500 ppm; pH 4.5; 24 hours growth, then plated
# Description: as §3, §4
# Saccharomyces cerevisiae [4] = details: 1000 ppm (positive control); pH 4.0; 72 hours
# Description: Each of the formulations presented above was added to each of the three 20 mL samples of the agar medium.
# In connection with this particular experiment, the pH of the samples was adjusted to a pH value of 4.0 by adding a small amount of 0.1 M HCl. The samples were then sterilized with steam at 121° C. for 15 minutes. In one embodiment, 1 mL sample formulations were poured into a 1.5 mL sterile microcentrifuge tube and inoculated with ˜10,000 Saccharomyces cerevisiae cells (e.g., yeast cells). The cells were allowed to grow outwards for 72 hours and then the endpoint concentration of cell growth was determined spectrophotometrically at 660 nm. In samples where cell growth was generally absent cell samples were diluted and counted on a yeast extract peptone dextrose plate. Controls to account for the presence of binder in the absorbance reading were subtracted out in the reporting of the final absorbance. The negative control was diluted twenty times prior to reading the Abs 660 nm.
# Aspergillus brasiliensis = details: 1000 ppm, pH 4.0
# Source text: (§5) To determine ascertain bactericidal and fungicidal qualities of the present food preservative solution, certain embodiments containing a combination of phenylacrylic acid, sorbic acid, a potentiation agent and a stabilization agent were subjected to a modified version of the United States Pharmocopedia (USP) antimicrobial efficacy test found in chapter 51 of the USP 40 manual. All embodiments were between pH 3.95-4.05.
# (§6) To each of the embodiments, 1×10^6 cells from the following spoilage organisms; Escheria coli, Listeria monocytogenes, Salmonella entericia, Aspergillus flavus, Aspergillus brasiliensis, and Zygosaccharomyces bailii. The microbials were homogeneously dispersed in the various embodiments. Small aliquots are taken from the inoculated samples at the appropriate time point is serial diluted and plated. The plates are incubated, and growth is then enumerated. The counts are multiplied by the appropriate dilution factor to give a viable cell count at that time point.
# Aspergillus flavus = details: 1000 ppm, pH 4.0
# Source text: as §5, §6
# Escheria coli = details: 1000 ppm, pH 4.0
# Source text: as §5, §6
# Listeria monocytogenes = details: 1000 ppm, pH 4.0
# Source text: as §5, §6
# Salmonella entericia = details: 1000 ppm, pH 4.0
# Source text: as §5, §6
# Zygosaccharomyces bailii [5] = details: 1000 ppm, pH 4.0
# Source text: as §5, §6
# [6] = pH 3.1, read-out: Percent inhibition
# [7] = pH 5.6, read-out: Percent inhibition
# [8] = pH 6, read-out: Percent inhibition
# [9] = pH 6.5, read-out: Percent inhibition
# [10] = pH 7, read-out: Percent inhibition
# [11] = pH 7.5, read-out: Percent inhibition
smiles,measurement,setting,value
C/C=C/C=C/C(=O)[O-].[K+] [Potassium Sorbate],inhibition at 130 ppm,Candida parapsilosis; [6],0.9%
same,inhibition at 250 ppm,Candida parapsilosis; [6],5.2%
same,inhibition at 500 ppm,Candida parapsilosis; [6],16.2%
same,inhibition at 1000 ppm,Candida parapsilosis; [6],13.5%
same,inhibition at 2000 ppm,Candida parapsilosis; [6],6.5%
same,inhibition at 130 ppm,Candida parapsilosis; [7],9.5%
same,inhibition at 250 ppm,Candida parapsilosis; [7],12.3%
same,inhibition at 500 ppm,Candida parapsilosis; [7],28.7%
same,inhibition at 1000 ppm,Candida parapsilosis; [7],32.8%
same,inhibition at 2000 ppm,Candida parapsilosis; [7],42.4%
same,inhibition at 130 ppm,Candida parapsilosis; [8],5%
same,inhibition at 250 ppm,Candida parapsilosis; [8],12.8%
same,inhibition at 500 ppm,Candida parapsilosis; [8],7.6%
same,inhibition at 1000 ppm,Candida parapsilosis; [8],4.6%
same,inhibition at 2000 ppm,Candida parapsilosis; [8],2.8%
same,inhibition at 130 ppm,Candida parapsilosis; [9],3.3%
same,inhibition at 250 ppm,Candida parapsilosis; [9],1.1%
same,inhibition at 500 ppm,Candida parapsilosis; [9],0%
same,inhibition at 1000 ppm,Candida parapsilosis; [9],0%
same,inhibition at 2000 ppm,Candida parapsilosis; [9],0.8%
same,inhibition at 130 ppm,Candida parapsilosis; [10],1.7%
same,inhibition at 250 ppm,Candida parapsilosis; [10],8.8%
same,inhibition at 500 ppm,Candida parapsilosis; [10],15.9%
same,inhibition at 1000 ppm,Candida parapsilosis; [10],8.3%
same,inhibition at 2000 ppm,Candida parapsilosis; [10],8.4%
same,inhibition at 130 ppm,Candida parapsilosis; [11],6.2%
same,inhibition at 250 ppm,Candida parapsilosis; [11],0%
same,inhibition at 500 ppm,Candida parapsilosis; [11],0%
same,inhibition at 1000 ppm,Candida parapsilosis; [11],0%
same,inhibition at 2000 ppm,Candida parapsilosis; [11],7.4%
same,inhibition at 130 ppm,Saccharomyces cerevisiae [1]; [6],99.6%
same,inhibition at 250 ppm,Saccharomyces cerevisiae [1]; [6],99.4%
same,inhibition at 500 ppm,Saccharomyces cerevisiae [1]; [6],99.7%
same,inhibition at 1000 ppm,Saccharomyces cerevisiae [1]; [6],99.8%
same,inhibition at 2000 ppm,Saccharomyces cerevisiae [1]; [6],99.3%
same,inhibition at 130 ppm,Saccharomyces cerevisiae [1]; [7],84.9%
same,inhibition at 250 ppm,Saccharomyces cerevisiae [1]; [7],95.3%
same,inhibition at 500 ppm,Saccharomyces cerevisiae [1]; [7],98.1%
same,inhibition at 1000 ppm,Saccharomyces cerevisiae [1]; [7],99%
same,inhibition at 2000 ppm,Saccharomyces cerevisiae [1]; [7],99.4%
same,inhibition at 130 ppm,Saccharomyces cerevisiae [1]; [8],9.9%
same,inhibition at 250 ppm,Saccharomyces cerevisiae [1]; [8],25%
same,inhibition at 500 ppm,Saccharomyces cerevisiae [1]; [8],50.3%
same,inhibition at 1000 ppm,Saccharomyces cerevisiae [1]; [8],62%
same,inhibition at 2000 ppm,Saccharomyces cerevisiae [1]; [8],76.2%
same,inhibition at 130 ppm,Saccharomyces cerevisiae [1]; [9],17.7%
same,inhibition at 250 ppm,Saccharomyces cerevisiae [1]; [9],28.2%
same,inhibition at 500 ppm,Saccharomyces cerevisiae [1]; [9],48.1%
same,inhibition at 1000 ppm,Saccharomyces cerevisiae [1]; [9],60.6%
same,inhibition at 2000 ppm,Saccharomyces cerevisiae [1]; [9],84.6%
same,inhibition at 130 ppm,Saccharomyces cerevisiae [1]; [10],22%
same,inhibition at 250 ppm,Saccharomyces cerevisiae [1]; [10],37.9%
same,inhibition at 500 ppm,Saccharomyces cerevisiae [1]; [10],53.2%
same,inhibition at 1000 ppm,Saccharomyces cerevisiae [1]; [10],69%
same,inhibition at 2000 ppm,Saccharomyces cerevisiae [1]; [10],84.9%
same,inhibition at 130 ppm,Saccharomyces cerevisiae [1]; [11],19.4%
same,inhibition at 250 ppm,Saccharomyces cerevisiae [1]; [11],44.9%
same,inhibition at 500 ppm,Saccharomyces cerevisiae [1]; [11],55.8%
same,inhibition at 1000 ppm,Saccharomyces cerevisiae [1]; [11],73.6%
same,inhibition at 2000 ppm,Saccharomyces cerevisiae [1]; [11],72.1%
same,inhibition at 130 ppm,Zygosaccharomyces bailii [2]; [6],91.9%
same,inhibition at 250 ppm,Zygosaccharomyces bailii [2]; [6],96.5%
same,inhibition at 500 ppm,Zygosaccharomyces bailii [2]; [6],99.1%
same,inhibition at 1000 ppm,Zygosaccharomyces bailii [2]; [6],99.7%
same,inhibition at 2000 ppm,Zygosaccharomyces bailii [2]; [6],100%
same,inhibition at 130 ppm,Zygosaccharomyces bailii [2]; [7],70.4%
same,inhibition at 250 ppm,Zygosaccharomyces bailii [2]; [7],86.7%
same,inhibition at 500 ppm,Zygosaccharomyces bailii [2]; [7],95.6%
same,inhibition at 1000 ppm,Zygosaccharomyces bailii [2]; [7],99.7%
same,inhibition at 2000 ppm,Zygosaccharomyces bailii [2]; [7],99.8%
same,inhibition at 130 ppm,Zygosaccharomyces bailii [2]; [8],0%
same,inhibition at 250 ppm,Zygosaccharomyces bailii [2]; [8],0%
same,inhibition at 500 ppm,Zygosaccharomyces bailii [2]; [8],0%
same,inhibition at 1000 ppm,Zygosaccharomyces bailii [2]; [8],1.8%
same,inhibition at 2000 ppm,Zygosaccharomyces bailii [2]; [8],3%
same,inhibition at 130 ppm,Zygosaccharomyces bailii [2]; [9],0%
same,inhibition at 250 ppm,Zygosaccharomyces bailii [2]; [9],0%
same,inhibition at 500 ppm,Zygosaccharomyces bailii [2]; [9],0%
same,inhibition at 1000 ppm,Zygosaccharomyces bailii [2]; [9],0%
same,inhibition at 2000 ppm,Zygosaccharomyces bailii [2]; [9],20%
same,inhibition at 130 ppm,Zygosaccharomyces bailii [2]; [10],0%
same,inhibition at 250 ppm,Zygosaccharomyces bailii [2]; [10],0%
same,inhibition at 500 ppm,Zygosaccharomyces bailii [2]; [10],0%
same,inhibition at 1000 ppm,Zygosaccharomyces bailii [2]; [10],0%
same,inhibition at 2000 ppm,Zygosaccharomyces bailii [2]; [10],16%
same,inhibition at 130 ppm,Zygosaccharomyces bailii [2]; [11],9.7%
same,inhibition at 250 ppm,Zygosaccharomyces bailii [2]; [11],0%
same,inhibition at 500 ppm,Zygosaccharomyces bailii [2]; [11],0%
same,inhibition at 1000 ppm,Zygosaccharomyces bailii [2]; [11],0%
same,inhibition at 2000 ppm,Zygosaccharomyces bailii [2]; [11],0.3%
same,inhibition at 130 ppm,Zygosaccharomyces rouxii; [6],39.3%
same,inhibition at 250 ppm,Zygosaccharomyces rouxii; [6],66.7%
same,inhibition at 500 ppm,Zygosaccharomyces rouxii; [6],80.4%
same,inhibition at 1000 ppm,Zygosaccharomyces rouxii; [6],88.6%
same,inhibition at 2000 ppm,Zygosaccharomyces rouxii; [6],84.2%
same,inhibition at 130 ppm,Zygosaccharomyces rouxii; [7],93.7%
same,inhibition at 250 ppm,Zygosaccharomyces rouxii; [7],95.9%
same,inhibition at 500 ppm,Zygosaccharomyces rouxii; [7],37.7%
same,inhibition at 1000 ppm,Zygosaccharomyces rouxii; [7],99.3%
same,inhibition at 2000 ppm,Zygosaccharomyces rouxii; [7],100%
same,inhibition at 130 ppm,Zygosaccharomyces rouxii; [8],0%
same,inhibition at 250 ppm,Zygosaccharomyces rouxii; [8],0%
same,inhibition at 500 ppm,Zygosaccharomyces rouxii; [8],3.4%
same,inhibition at 1000 ppm,Zygosaccharomyces rouxii; [8],17.4%
same,inhibition at 2000 ppm,Zygosaccharomyces rouxii; [8],63.3%
same,inhibition at 130 ppm,Zygosaccharomyces rouxii; [9],19.7%
same,inhibition at 250 ppm,Zygosaccharomyces rouxii; [9],0%
same,inhibition at 500 ppm,Zygosaccharomyces rouxii; [9],6.7%
same,inhibition at 1000 ppm,Zygosaccharomyces rouxii; [9],65.6%
same,inhibition at 2000 ppm,Zygosaccharomyces rouxii; [9],90.6%
same,inhibition at 130 ppm,Zygosaccharomyces rouxii; [10],4.7%
same,inhibition at 250 ppm,Zygosaccharomyces rouxii; [10],9.2%
same,inhibition at 500 ppm,Zygosaccharomyces rouxii; [10],62.7%
same,inhibition at 1000 ppm,Zygosaccharomyces rouxii; [10],86.2%
same,inhibition at 2000 ppm,Zygosaccharomyces rouxii; [10],89.3%
same,inhibition at 130 ppm,Zygosaccharomyces rouxii; [11],7.2%
same,inhibition at 250 ppm,Zygosaccharomyces rouxii; [11],16.5%
same,inhibition at 500 ppm,Zygosaccharomyces rouxii; [11],48.6%
same,inhibition at 1000 ppm,Zygosaccharomyces rouxii; [11],74.9%
same,inhibition at 2000 ppm,Zygosaccharomyces rouxii; [11],95.2%
same,Escherichia coli cell count,Escherichia coli,5.49 Log(CFU/mL)
same,Lactobacillus acidophilus cell count,[3],<2 Log(CFU/mL)
same,Abs 660 nm after 3 days,Saccharomyces cerevisiae [4],0.0396 ± 0.005
same,Cell Count after 3 days,Saccharomyces cerevisiae [4],5.3 × 10^5 CFU/mL
"CC=CC=CC(=O)O [Sorbic Acid, 2,4 hexadienoic acid]",Microbial plate count,Aspergillus brasiliensis; Test Day 0,630000 CFU/g
same,Microbial plate count,Aspergillus brasiliensis; Test Day 0.5,230000 CFU/g
same,Microbial plate count,Aspergillus brasiliensis; Test Day 1,520 CFU/g
same,Microbial plate count,Aspergillus brasiliensis; Test Day 3,<10 CFU/g
same,Microbial plate count,Aspergillus brasiliensis; Test Day 7,<10 CFU/g
same,Microbial plate count,Aspergillus flavus; Test Day 0,510000 CFU/g
same,Microbial plate count,Aspergillus flavus; Test Day 0.5,8500 CFU/g
same,Microbial plate count,Aspergillus flavus; Test Day 1,<10 CFU/g
same,Microbial plate count,Aspergillus flavus; Test Day 3,<10 CFU/g
same,Microbial plate count,Aspergillus flavus; Test Day 7,<10 CFU/g
same,Microbial plate count,Escheria coli; Test Day 0,580000 CFU/g
same,Microbial plate count,Escheria coli; Test Day 0.5,<10 CFU/g
same,Microbial plate count,Escheria coli; Test Day 1,<10 CFU/g
same,Microbial plate count,Escheria coli; Test Day 3,<10 CFU/g
same,Microbial plate count,Escheria coli; Test Day 7,<10 CFU/g
same,Microbial plate count,Listeria monocytogenes; Test Day 0,620000 CFU/g
same,Microbial plate count,Listeria monocytogenes; Test Day 0.5,<10 CFU/g
same,Microbial plate count,Listeria monocytogenes; Test Day 1,<10 CFU/g
same,Microbial plate count,Listeria monocytogenes; Test Day 3,<10 CFU/g
same,Microbial plate count,Listeria monocytogenes; Test Day 7,<10 CFU/g
same,Microbial plate count,Salmonella entericia; Test Day 0,800000 CFU/g
same,Microbial plate count,Salmonella entericia; Test Day 0.5,<10 CFU/g
same,Microbial plate count,Salmonella entericia; Test Day 1,<10 CFU/g
same,Microbial plate count,Salmonella entericia; Test Day 3,<10 CFU/g
same,Microbial plate count,Salmonella entericia; Test Day 7,<10 CFU/g
same,Microbial plate count,Zygosaccharomyces bailii [5]; Test Day 0,480000 CFU/g
same,Microbial plate count,Zygosaccharomyces bailii [5]; Test Day 0.5,130000 CFU/g
same,Microbial plate count,Zygosaccharomyces bailii [5]; Test Day 1,1600 CFU/g
same,Microbial plate count,Zygosaccharomyces bailii [5]; Test Day 3,120 CFU/g
same,Microbial plate count,Zygosaccharomyces bailii [5]; Test Day 7,<10 CFU/g
